Source: patent publication US10322103B2, “Compositions for prevention/prophylactic treatment of poison ivy dermatitis” (The University of Mississippi, priority 2008, dated 2019)

Tests used:
[1] = Polarity: dissolution in ethanol and dilution with aqueous medium; type: physicochemical
Description: Polarity of HDC-Phenyl Alaninate Ester:

[2] = system: urushiol contact dermatitis; experiment: Induction of tolerance to poison ivy/poison oak urushiol in the guinea pig contact dermatitis model; type: in vivo, Hartley guinea pigs; settings: for erythema at the exposure site / erythema or edema observed: Test #1; for erythema at the exposure site: 24, 48 or 72 hrs post challenge, urushiol 3.0, 4.5 and 6.0 ug; for erythema or edema at the site of urushiol challenge: 24 hours, any of the doses used; for skin lesion scores compared to groups IV and V: all the 3 tests
Description: Animals: Hartley strains of guinea pigs (n=40) were obtained from Harlan, Indianapolis Ind. 46229. The animals were divided in the 5 groups (n=8/group) and treated as described hereunder. These animals were kept in a controlled environment with a 12-hour day and night cycle and provided feed and water ad libitum. Study design: FIG. 8 describes the general procedure for determining the efficacy of the agents produced according to the present invention.
Application sites of urushiol challenge doses on abdominal skin are shown in FIG. 9, and are described below.
Group I. Animals in this group were given the compound (4) (HDC 4-(4-aminophenyl) butyrate ester) via the intramuscular (IM) route; 300 ul of the equivalent of 20 mg/mL solution of the free catechol in 5% ethanol in each hind leg. Two weeks later these animals were sensitized with urushiol (100 uL acetone containing 1.0 mg of urushiol) on the surface skin in the neck region. Two weeks later the animals were challenged with urushiol (15 uL volume acetone containing 3.0 ug, 4.5 ug or 6.0 ug) on the abdominal skin in a volume of 15 uL. The vehicle contained 15 uL of acetone (see diagram 2). The animals were tested 3 times after sensitization: Test #1 at two weeks post sensitization, test #2 conducted at four weeks post sensitization and test #3 was conducted twelve weeks post sensitization.
Group II. Animals were given 300 uL of the equivalent of 20 mg/mL solution of the free catechol in 5% ethanol of HDC Phenyl alaninate ester (compound 3) via the IM route in each hind leg (total 600 uL). This was followed by sensitization with urushiol on the neck, and then tested with urushiol challenge on the abdominal skin as described for group I.
Group III. Animals were given 300 uL of the equivalent of 20 mg/mL solution of the free catechol in 5% ethanol of HDC Hemiglutarate ester (compound 5) via the IM route in each hind leg. This was followed, two weeks later, by sensitization with (urushiol 100 uL) on the neck, followed by abdominal skin test as described for group I.
Group IV. Animals were given 300 uL of vehicle (5% ethanol) via the IM route in each of the hind legs. This was followed, two weeks later, by sensitization and then followed by abdominal skin test as described for group I.
Group V. Animals in this group were given PBS (300 uL in each of the hind legs) via the IM route. This was followed two weeks later by sensitization and then followed by abdominal skin test as described for group I.
After challenging the animals with urushiol on their abdominal skin, the severity of Erythema and Edema were observed and scored according to the Draize scoring system as shown below. The scores were recorded at 24, 48 and 72 hrs post urushiol skin application.

[3] = Test #2, 48 hours, urushiol challenge dose 4.5 ug
[4] = Test #2, 48 hours, urushiol challenge dose 6.0 ug

CCCCCCCCCCCCCCCCCc1cccc(OC(=O)[C@@H](N)Cc2ccccc2)c1OC(=O)[C@@H](N)Cc1ccccc1 [Compound 3, HDC-Phenyl Alaninate Ester]
appearance of solution (polarity) ([1]; 10 mg dissolved in 50 ul of ethanol, adjusted to 1 ml with water): formed a homogenous solution | erythema at the exposure site [2]: did not show any or showed very slight erythema | erythema or edema observed ([2]; 48 hours post challenge): no erythema or edema was observed | erythema or edema observed ([2]; 72 hours post challenge): no erythema or edema was observed | skin lesion score ([2]; Test #2, 48 hours, all challenge doses): ≤ 1.0 | erythema or edema at the site of urushiol challenge ([2]; Test #3): did not show erythema or edema | lesion score ([2]; Test #3, 48 hours): ≤ 1.0 | skin lesion scores compared to groups IV and V [2]: negligible

CCCCCCCCCCCCCCCCCc1cccc(OC(=O)CCCc2ccc(N)cc2)c1OC(=O)CCCc1ccc(N)cc1 [Compound 4]
appearance of solution (polarity) ([1]; 10 mg as a HCl salt in 50 ul of ethanol, adjusted to 1 mL with water (10 mg/mL)): clear solution | erythema at the exposure site [2]: did not show any or showed very slight erythema | erythema or edema observed ([2]; 48 hours post challenge): no erythema or edema was observed | erythema or edema observed ([2]; 72 hours post challenge): no erythema or edema was observed | total skin lesion score [2, 3]: 1.5 | total skin lesion score [2, 4]: 1.5 | erythema or edema at the site of urushiol challenge ([2]; Test #3): did not show erythema or edema | skin lesion scores compared to groups IV and V [2]: negligible

CCCCCCCCCCCCCCCCCc1cccc(OC(=O)CCCC(=O)O)c1OC(=O)CCCC(=O)O [Compound 5, 5,5′(3-heptadecyl-1,2-phenylene)bis(oxy)bis(5-oxopentanoic acid)]
appearance of solution (polarity) ([1]; 10 mg in 50 ul of ethanol, adjusted to 1 ml with potassium phosphate buffer (pH 8)): formed a homogenous solution | erythema at the exposure site [2]: did not show any or showed very slight erythema | erythema or edema observed ([2]; 48 hours post challenge): no erythema or edema was observed | erythema or edema observed ([2]; 72 hours post challenge): no erythema or edema was observed | total skin lesion score [2, 3]: 1.0 | total skin lesion score [2, 4]: 2.5 | total lesion score ([2]; Test #2, 72 hours): ≤ 2.0 | erythema or edema at the site of urushiol challenge ([2]; Test #3): did not show erythema or edema | skin lesion scores compared to groups IV and V [2]: negligible
